Experimental data: patent US9486506B2 (Novo Nordisk A/S, priority 2011, dated 2016)
pEC50: −log10 of the molar value. Numbered stars: 1 amine (or outer) side, 2 acyl side, 3 side chain; on linkers, the order of the positions; unused ones are H or OH. Side chains are listed from the residue outwards. Peptide text beside a SMILES is read from it. * marks the point of attachment. C20 diacid = O=C(O)CCCCCCCCCCCCCCCCCCC(=O)*; C18 diacid = O=C(O)CCCCCCCCCCCCCCCCC(=O)*; C16 diacid = O=C(O)CCCCCCCCCCCCCCC(=O)*; γGlu = O=C(O)[C@H](CCC(=O)[*:2])N[*:1]; AEEA = NCCOCCOCC(=O)O

Target: T1, glucagon receptor (Homo sapiens, UniProt P47871)
T1 construct: expressed in transfected cells
T1 sequence (P47871 26-477): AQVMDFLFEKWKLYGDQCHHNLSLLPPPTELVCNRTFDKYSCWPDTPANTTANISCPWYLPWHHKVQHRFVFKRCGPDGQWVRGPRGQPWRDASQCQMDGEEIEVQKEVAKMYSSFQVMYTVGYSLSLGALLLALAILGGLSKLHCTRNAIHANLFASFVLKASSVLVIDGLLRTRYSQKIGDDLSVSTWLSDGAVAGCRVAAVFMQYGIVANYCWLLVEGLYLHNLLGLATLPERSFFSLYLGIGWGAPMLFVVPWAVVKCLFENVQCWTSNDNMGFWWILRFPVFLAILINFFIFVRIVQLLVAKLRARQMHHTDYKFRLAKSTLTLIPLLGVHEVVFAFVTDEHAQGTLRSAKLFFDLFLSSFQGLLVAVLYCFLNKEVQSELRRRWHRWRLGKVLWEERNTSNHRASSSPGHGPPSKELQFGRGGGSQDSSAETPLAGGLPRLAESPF
Experiment: Assay (I) Glucagon activity (cAMP biosensor, FLIPR)
Format: cell-based
Procedure: The cells (14000 per well) were incubated (37° C., 5% CO2) overnight in 384-well plates. Next day the cells were loaded with a calcium responsive dye that only distributed into the cytoplasm. Probenecid, an inhibitor of the organic anion transporter, was added to prevent the dye from leaving the cell. A PDE inhibitor was added to prevent formatted cAMP from being degraded. The plates were placed into a […] and the glucagon analogues were added. End point data were collected after 6 minutes. An increase in intracellular cAMP was proportional to an increased in calcium concentrations in the cytoplasm. When calcium was bound the dry a fluorescence signal was generated. EC50-values were calculated in Prism5.

Row | SMILES | pEC50
1 | CC(C)C[C@H](NC(=O)[C@H](CC(=O)O)NC(=O)[C@H](CC(C)C)NC(=O)[C@H](Cc1ccc(O)cc1)NC(=O)[C@H](CCCNC(=N)N)NC(=O)[C@H](CO)NC(=O)[C@H](Cc1ccc(O)cc1)NC(=O)[C@H](CC(=O)O)NC(=O)[C@H](CO)NC(=O)[C@@H](NC(=O)[C@H](Cc1ccccc1)NC(=O)[C@@H](NC(=O)CNC(=O)[C@H](CCC(N)=O)NC(=O)[C@H](CO)NC(=O)[C@@H](N)Cc1c[nH]cn1)[C@@H](C)O)[C@@H](C)O)C(=O)N[C@@H](CCCNC(=N)N)C(=O)N[C@@H](CCCNC(=N)N)C(=O)N[C@@H](C)C(=O)N[C@@H](CCC(N)=O)C(=O)N[C@@H](CC(=O)O)C(=O)N[C@@H](Cc1ccccc1)C(=O)N[C@H](C(=O)N[C@@H](CCCCNC(=O)CC[C@H](NC(=O)CC[C@H](NC(=O)CC[C@H](NC(=O)CC[C@H](NC(=O)CCCCCCCCCCCCCCC(=O)O)C(=O)O)C(=O)O)C(=O)O)C(=O)O)C(=O)N[C@@H](Cc1c[nH]c2ccccc12)C(=O)N[C@@H](CC(C)C)C(=O)N[C@@H](CC(C)C)C(=O)N[C@@H](CO)C(=O)N[C@H](C(=O)O)[C@@H](C)O)C(C)C [Example 74, N^ε24-[(4S)-4-carboxy-4-[[(4S)-4-carboxy-4-[[(4S)-4-carboxy-4-[[(4S)-4-carboxy-4-(15-carboxypentadecanoylamino)butanoyl]amino]butanoyl]amino]butanoyl]amino]butanoyl]-[Arg12,Leu16,Lys24,Leu27,Ser28]-Glucagon] (H-HSQGTFTSDYSRYLDLRRAQDFVK([γGlu-γGlu-γGlu-γGlu-C16 diacid])WLLST-OH) | 9.96
2 | CC(C)C[C@H](NC(=O)[C@H](Cc1c[nH]c2ccccc12)NC(=O)[C@H](CCCCNC(=O)CC[C@H](NC(=O)CC[C@H](NC(=O)COCCOCCNC(=O)COCCOCCNC(=O)CC[C@H](NC(=O)CCCCCCCCCCCCCCC(=O)O)C(=O)O)C(=O)O)C(=O)O)NC(=O)[C@@H](NC(=O)[C@H](Cc1ccccc1)NC(=O)[C@H](CC(=O)O)NC(=O)[C@H](CCC(N)=O)NC(=O)[C@H](C)NC(=O)[C@H](CCCNC(=N)N)NC(=O)[C@H](CCCNC(=N)N)NC(=O)[C@@H](NC(=O)[C@H](CC(=O)O)NC(=O)[C@H](CC(C)C)NC(=O)[C@H](Cc1ccc(O)cc1)NC(=O)[C@H](CCCCN)NC(=O)[C@H](CO)NC(=O)[C@H](Cc1ccc(O)cc1)NC(=O)[C@H](CC(=O)O)NC(=O)[C@H](CO)NC(=O)[C@@H](NC(=O)[C@H](Cc1ccccc1)NC(=O)[C@@H](NC(=O)CNC(=O)[C@H](CCC(N)=O)NC(=O)[C@H](CO)NC(=O)[C@@H](N)Cc1c[nH]cn1)[C@@H](C)O)[C@@H](C)O)[C@@H](C)O)C(C)C)C(=O)N[C@@H](CC(C)C)C(=O)N[C@@H](CO)C(=O)N[C@H](C(=O)O)[C@@H](C)O [Example 81, N^ε24-[(4S)-4-carboxy-4-[[(4S)-4-carboxy-4-[[2-[2-[2-[[2-[2-[2-[[(4S)-4-carboxy-4-(15-carboxypentadecanoylamino)butanoyl]amino]ethoxy]ethoxy]acetyl]amino]ethoxy]ethoxy]acetyl]amino]butanoyl]amino]butanoyl]-[Thr16,Lys24,Leu27,Ser28]-Glucagon] | 10.77
3 | CC(C)C[C@H](NC(=O)[C@H](Cc1ccc(O)cc1)NC(=O)[C@H](CCCCN)NC(=O)[C@H](CO)NC(=O)[C@H](Cc1ccc(O)cc1)NC(=O)[C@H](CC(=O)O)NC(=O)[C@H](CO)NC(=O)[C@@H](NC(=O)[C@H](Cc1ccccc1)NC(=O)[C@@H](NC(=O)CNC(=O)[C@H](CCC(N)=O)NC(=O)[C@H](CO)NC(=O)[C@@H](N)Cc1c[nH]cn1)[C@@H](C)O)[C@@H](C)O)C(=O)N[C@@H](CCC(=O)O)C(=O)N[C@@H](CO)C(=O)N[C@@H](CCCNC(=N)N)C(=O)N[C@@H](CCCNC(=N)N)C(=O)N[C@@H](C)C(=O)N[C@@H](CCC(N)=O)C(=O)N[C@@H](CC(=O)O)C(=O)N[C@@H](Cc1ccccc1)C(=O)N[C@H](C(=O)N[C@@H](CCCCNC(=O)CC[C@H](NC(=O)COCCOCCNC(=O)COCCOCCNC(=O)CC[C@H](NC(=O)CCCCCCCCCCCCCCCCC(=O)O)C(=O)O)C(=O)O)C(=O)N[C@@H](Cc1c[nH]c2ccccc12)C(=O)N[C@@H](CC(C)C)C(=O)N[C@@H](CC(C)C)C(=O)N[C@@H](CC(N)=O)C(=O)N[C@H](C(=O)O)C(C)C)C(C)C [Example 33, N^ε24-[(4S)-4-carboxy-4-[[2-[2-[2-[[2-[2-[2-[[(4S)-4-carboxy-4-(17-carboxyheptadecanoylamino)butanoyl]amino]ethoxy]ethoxy]acetyl]amino]ethoxy]ethoxy]acetyl]amino]butanoyl]-[Glu15,Lys24,Leu27,Val29]-Glucagon] | 9.04
4 | CC(C)C[C@H](NC(=O)[C@H](CC(=O)O)NC(=O)[C@H](CC(C)C)NC(=O)[C@H](Cc1ccc(O)cc1)NC(=O)[C@H](CCCNC(=N)N)NC(=O)[C@H](CO)NC(=O)[C@H](Cc1ccc(O)cc1)NC(=O)[C@H](CC(=O)O)NC(=O)[C@H](CO)NC(=O)[C@@H](NC(=O)[C@H](Cc1ccccc1)NC(=O)[C@@H](NC(=O)CNC(=O)[C@H](CCC(N)=O)NC(=O)[C@H](CO)NC(=O)[C@@H](N)Cc1c[nH]cn1)[C@@H](C)O)[C@@H](C)O)C(=O)N[C@@H](CCCNC(=N)N)C(=O)N[C@@H](CCCNC(=N)N)C(=O)N[C@@H](C)C(=O)N[C@@H](CCC(N)=O)C(=O)N[C@@H](CC(=O)O)C(=O)N[C@@H](Cc1ccccc1)C(=O)N[C@H](C(=O)N[C@@H](CCCCNC(=O)CC[C@H](NC(=O)COCCOCCNC(=O)COCCOCCNC(=O)CC[C@H](NC(=O)CC[C@H](NC(=O)CCCCCCCCCCCCCCCCC(=O)O)C(=O)O)C(=O)O)C(=O)O)C(=O)N[C@@H](Cc1c[nH]c2ccccc12)C(=O)N[C@@H](CC(C)C)C(=O)N[C@@H](CC(C)C)C(=O)N[C@@H](CO)C(=O)N[C@H](C(=O)O)[C@@H](C)O)C(C)C [Example 27, N^ε24-[(4S)-4-carboxy-4-[[2-[2-[2-[[2-[2-[2-[[(4S)-4-carboxy-4-[[(4S)-4-carboxy-4-(17-carboxyheptadecanoylamino)butanoyl]amino]butanoyl]amino]ethoxy]ethoxy]acetyl]amino]ethoxy]ethoxy]acetyl]amino]butanoyl]-[Arg^12,Leu^16,Lys^24,Leu^27,Ser^28]-Glucagon] (H-HSQGTFTSDYSRYLDLRRAQDFVK([γGlu-AEEA-AEEA-γGlu-γGlu-C18 diacid])WLLST-OH) | 9.04
5 | CC(C)C[C@H](NC(=O)[C@H](CC(=O)O)NC(=O)[C@H](CC(C)C)NC(=O)[C@H](Cc1ccc(O)cc1)NC(=O)[C@H](CCCNC(=N)N)NC(=O)[C@H](CO)NC(=O)[C@H](Cc1ccc(O)cc1)NC(=O)[C@H](CC(=O)O)NC(=O)[C@H](CO)NC(=O)[C@@H](NC(=O)[C@H](Cc1ccccc1)NC(=O)[C@@H](NC(=O)CNC(=O)[C@H](CCC(N)=O)NC(=O)[C@H](CO)NC(=O)[C@@H](N)Cc1c[nH]cn1)[C@@H](C)O)[C@@H](C)O)C(=O)N[C@@H](CCCNC(=N)N)C(=O)N[C@@H](CCCNC(=N)N)C(=O)N[C@@H](C)C(=O)N[C@@H](CCC(N)=O)C(=O)N[C@@H](CC(=O)O)C(=O)N[C@@H](Cc1ccccc1)C(=O)N[C@H](C(=O)N[C@@H](CCCCNC(=O)CC[C@H](NC(=O)CC[C@H](NC(=O)COCCOCCNC(=O)COCCOCCNC(=O)CC[C@H](NC(=O)CCCCCCCCCCCCCCCCCCC(=O)O)C(=O)O)C(=O)O)C(=O)O)C(=O)N[C@@H](Cc1c[nH]c2ccccc12)C(=O)N[C@@H](CC(C)C)C(=O)N[C@@H](CC(C)C)C(=O)N[C@@H](CO)C(=O)N[C@H](C(=O)O)[C@@H](C)O)C(C)C [Example 26, N^ε24-[(4S)-4-carboxy-4-[[(4S)-4-carboxy-4-[[2-[2-[2-[[2-[2-[2-[[(4S)-4-carboxy-4-(19-carboxynonadecanoylamino)butanoyl]amino]ethoxy]ethoxy]acetyl]amino]ethoxy]ethoxy]acetyl]amino]butanoyl]amino]butanoyl]-[Arg^12,Leu^16,Lys^24,Leu^27,Ser^28]-Glucagon] (H-HSQGTFTSDYSRYLDLRRAQDFVK([γGlu-γGlu-AEEA-AEEA-γGlu-C20 diacid])WLLST-OH) | 8.97
6 | CC(C)C[C@H](NC(=O)[C@H](Cc1c[nH]c2ccccc12)NC(=O)[C@H](CCCCNC(=O)CC[C@H](NC(=O)CC[C@H](NC(=O)COCCOCCNC(=O)COCCOCCNC(=O)CC[C@H](NC(=O)CCCCCCCCCCCCCCCCC(=O)O)C(=O)O)C(=O)O)C(=O)O)NC(=O)[C@@H](NC(=O)[C@H](Cc1ccccc1)NC(=O)[C@H](CCC(=O)O)NC(=O)[C@H](CCC(N)=O)NC(=O)[C@H](C)NC(=O)[C@H](CCCNC(=N)N)NC(=O)[C@H](CCCNC(=N)N)NC(=O)[C@@H](NC(=O)[C@H](CC(=O)O)NC(=O)[C@H](CC(C)C)NC(=O)[C@H](Cc1ccc(O)cc1)NC(=O)[C@H](CCCCN)NC(=O)[C@H](CO)NC(=O)[C@H](Cc1ccc(O)cc1)NC(=O)[C@H](CC(=O)O)NC(=O)[C@H](CO)NC(=O)[C@@H](NC(=O)[C@H](Cc1ccccc1)NC(=O)[C@@H](NC(=O)CNC(=O)[C@H](CCC(N)=O)NC(=O)[C@H](CO)NC(=O)[C@@H](N)Cc1c[nH]cn1)[C@@H](C)O)[C@@H](C)O)[C@@H](C)O)C(C)C)C(=O)N[C@@H](CC(C)C)C(=O)N[C@@H](CO)C(=O)N[C@H](C(=O)O)[C@@H](C)O [Example 31, N^ε24-[(4S)-4-carboxy-4-[[(4S)-4-carboxy-4-[[2-[2-[2-[[2-[2-[2-[[(4S)-4-carboxy-4-(17-carboxyheptadecanoylamino)butanoyl]amino]ethoxy]ethoxy]acetyl]amino]ethoxy]ethoxy]acetyl]amino]butanoyl]amino]butanoyl]-[Thr16,Glu21,Lys24,Leu27,Ser28]-Glucagon] (H-HSQGTFTSDYSKYLDTRRAQEFVK([γGlu-γGlu-AEEA-AEEA-γGlu-C18 diacid])WLLST-OH) | 10.14
